Measured values taken from patent publication US9415047B2, “Use of benzo five-membered nitrogen heterocyclic piperazine or piperidine derivatives” (Liaoning Emmy Biological Pharmaceutical Co., Ltd., priority 2012, dated 2016).
“And” between values parts separate entries of the source, which are not always exact repeats. Identical values can stand only once. “Also recorded” adds a separate entry of the source.

Tests used:
[1] = tested on: high kalium concentration constricted rabbit aorta; assay: Relaxing effects on vascular smooth muscle constricted by high kalium concentration in vitro; details: Oryctolagus cuniculus, relaxation of rabbit aorta constricted by high kalium solution (K+ 60 mmol/L); mean±SEM, n=5
In short: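 Rabbit aortic rings pre-challenged with adrenaline (10^−5 mol/L), washed and re-equilibrated 60 min in K-H solution, then constricted with high-K+ solution; compounds added cumulatively over 1×10^−10–1×10^−2 mol/L depending on series. Relaxation expressed as % of maximal relaxation vs −log concentration; mean±SEM, n=5.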

Kunming mice [2] = assay: Marrow micronucleus test on mice; assay type: in vivo; details: for micronuclei cells in 1000 polychromatic erythrocytes: dosed 4 days, test on day 5, II-2 120, II-85 74, cyclophosphane 60 mg/kg/day
Experimental: Ten Kunming mice (Experimental Animal Center, China Medical University), half male and half female, were used. Compound II-2 was administered via gastric gavage at 120 mg/kg/day, and II-85 was administered to 74 mg/kg/day. The drug was administered for 4 days continuously. Marrow micronucleus test was performed on day 5.
Mice in positive control group were administered cyclophosphane at 60 mg/kg/day. Mice in negative control group were administered normal saline at 0.1 ml/10 g/day. The drug was administered for 4 days continuously. Marrow micronucleus test was performed on day 5.
The mice were killed by snapping neck, and then femur and sternum were excised, with blood and muscles removed, epiphysis cut off. Then marrow from sternum was squeezed to clean glassslide with bovine serum by using a pair of hemostatic forceps, or marrow on femur was flushed directly with bovine serum onto clean glassslide. Then the substance on glassslide were mixed well and smeared. Then the prepared and dried marrow smears were put into staining tank with methanol, fixed for 15 min, picked out to dry in the open air. After marrow smears were dried, it would be stained in freshly prepared Giemsa solution (1 volume of Giemsa stock solution and 9 volumes of pH 6.8 phosphate buffer) for 10 min, staining solution was flushed away with little stream. Then the smear was dried in the open air and observed under a microscope.

SD rats = assay: Effects on blood pressure of SD rats anesthetized with urethane; assay type: in vivo; details: for time until blood pressures recovered to those before drug dosing: anesthetized SD rats; for time until blood pressures recovered to those before drug dosing / hypotensive effects: gastric gavage; for oral absorption: in vivo bulk testing on rats; for hypotensive effects: rats
Experimental: Four SD rats were anesthetized with urethane ([…]), after vital signs became stable, blood pressure was measured by common carotid intubation. After blood pressure became stable, compound II-2 was administered at 4.0 mg/kg via gastric gavage, blood pressure changes with time were observed and recorded.
Five SD rats (provided by Experimental Animal Center, China Medical University) were anesthetized with urethane ([…]), after vital signs became stable, blood pressure was measured by common carotid intubation. After blood pressure became stable, compound II-85 was administered at 1.5 mg/kg via gastric gavage, blood pressure changes with time were observed and recorded.

[3] = tested on: AD constricted rabbit aorta; assay: Relaxing effects on vascular smooth muscle constricted by adrenaline hydrochloride (AD) in vitro; details: Oryctolagus cuniculus; relaxation of rabbit aorta constricted by adrenaline (10^−5 mol/L); mean±SEM, n=5
In short: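 Rabbit aortic strips in K-H solution precontracted with adrenaline hydrochloride (10^−5 mol/L) after a reproducible second contraction; compounds added cumulatively over ranges from 1×10^−10 up to 1×10^−2 mol/L depending on the compound series. Relaxation expressed as % of maximal relaxation versus −log concentration, mean±SEM, n=5.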

5-HT2A receptor = 5-HT2A receptor (Oryctolagus cuniculus, UniProt G1SYA7); assay: Antagonism of accumulative constriction of rabbit aorta by 5-HT
Experimental: (§3) Rabbits were hit to be dizzy, with thoracic cavity quickly cut open, descending aorta exposed, connective tissues and surrounding fatty tissues (for hydroxytryptamine receptor antagonism test, endothelia should be removed with smooth stainless steel rod) removed, the aorta was cut into 3-5 mm vascular rings which were penetrated together with a steel wire with one end fixed on ventilation hook, another end on pressure tonotransducer. The aorta rings were put into a bath tube with 20 ml of nutritional solution, and the tension changes were recorded by using the recorder. The temperature of bath tube was maintained at 37±0.5° C., and mixed gas (95% O2+5% CO2) was ventilated at a rate of I-2 bubbles/second. The initial load of the sample was 1.5 g, nutritional solution was changed for every 20 min. The sample was balanced for 2 hours, and the experiment would be started when baseline became stable.
After sample tension became stable, a piece of waveform was recorded, 5-HT (10^−7-3×10^−4 mol/L) was added into the bath tube until maximal response, then waveform was recorded. […] 5-HT was also added by using the same method 20 min later. The maximal response was considered 100%, 5-HT constriction percentage was used as Y axis, negative logarithms of different concentrations of 5-HT were used as X axis to draw dose effective curve.
After sample tension became stable, a piece of waveform was recorded, 5-HT (10^−8-10^−3 mol/L) was added into the bath tube until maximal response, then waveform was recorded. […] 5-HT was also added by using the same method 20 min later. The maximal response was considered 100%, 5-HT constriction percentage was used as Y axis, negative logarithms of different concentrations of 5-HT were used as X axis to draw dose effective curve (data were expressed in mean±SEM ( ? ), *P<0.05, **P<0.01, n=7).
After sample tension became stable, a piece of waveform was recorded, 5-HT (10^−8-3×10^−4 mol/L) was added into the bath tube until maximal response, then waveform was recorded. […] 5-HT was also added by using the same method 20 min later. […]

Kunming mice [4] = assay: Experiment on acute toxicity; details: mouse, in vivo
Excerpt: (§1) Kunming mice (Experimental Animal Center, China Medical University) were used, half male and half female, 18-22 g, brief probability unit method was used to test the acute toxicity of the compound.
(§2) Ten Kunming mice (Experimental Animal Center, China Medical University) were used, half male and half female, 18-22 g, brief probability unit method was used to test the acute toxicity of the compound.

[5] = Experiment on acute toxicity; details: both sexes, Kunming, mouse, in vivo, mice
Excerpt: as §1, §2

Calcium Channel (Ca^2+) = assay: Antagonism of accumulative constriction of rabbit aorta by CaCl2; details: calcium free high kalium depolarization
Experimental: as §3
After sample tension became stable, calcium K-H solution was used to flush the sample for 3 times, and incubated with calcium free K-H solution for 40 min. Calcium free high kalium solution was added into the sample for depolarization for 20 min, then CaCl2 (10^−6-10^−2 mol/L) was added into bath tube till maximal response was achieved, and then waveform was recorded. Then K-H solution was used to flush the sample repeatedly, the K-H solution was changed for every 20 min, and the sample was balanced for 60 min. […]
After sample tension became stable, calcium K-H solution was used to flush the sample for 3 times, and incubated with calcium free K-H solution for 40 min. Calcium free high kalium solution was added into the sample for depolarization for 20 min, then CaCl2 (10^−6-10^−2 mol/L) was added into bath tube till maximal response was achieved, and then waveform was recorded. […] Calcium free high kalium solution was added into the sample for depolarization for 20 min, then amlodipine (10^−7 mol/L) was added into bath tube, which was incubated for 15 min, then CaCl2 (10^−6-10^−2 mol/L) was added by using the same method till maximal response was achieved, and then waveform was recorded. […]

α1 receptor [6] = assay: Antagonism of accumulative constriction of rabbit aorta by noradrenaline (α-receptor agonist)
Experimental: Then samples were flushed with K-H solution repeatedly, K-H solution was changed for every 20 min, and the samples were balanced for 60 min. After baseline recovered to be stable, doxazosin (10^−7 mol/L) was added, and noradrenaline (NA) (10^−8-6×10^−5 mol/L) was added by using the same method 15 min later.
NA was also added by using the same method 15 min later.

[7] = tested on: NA constricted rabbit aorta; assay: Relaxing effects on vascular smooth muscle constricted by noradrenaline (NA) in vitro; details: Oryctolagus cuniculus; relaxation of rabbit aorta constricted by noradrenaline (10^−5 mol/L); mean±SEM, n=5
In short: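 Rabbit aortic rings in K-H solution, pre-tested with adrenaline (10^−5 mol/L), washed and re-equilibrated 60 min, then constricted with noradrenaline (10^−5 mol/L). Compounds added cumulatively from 1×10^−10 up to 1×10^−2 or 1×10^−3 mol/L; relaxation expressed as % of maximal relaxation versus −log concentration (mean±SEM, n=5).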

α1 receptor [8] = assay: Antagonism of accumulative constriction of rabbit aorta by phenylephrine (α-receptor agonist); details: agonist (R)-phenylephrine
Experimental: PE was also added by using the same method 15 min later. […] The curve was shown in FIG. 21 after positive drug doxazosine mesylate (10^−7 mol/L) was added.

[9] = 4.0 mg/kg gastric gavage, 0 min post dosing, n = 4
[10] = 4.0 mg/kg gastric gavage, 15 min post dosing, n = 4
[11] = 4.0 mg/kg gastric gavage, 30 min post dosing, n = 4
[12] = 4.0 mg/kg gastric gavage, 60 min post dosing, n = 4
[13] = 4.0 mg/kg gastric gavage, 90 min post dosing, n = 4
[14] = 4.0 mg/kg gastric gavage, 120 min post dosing, n = 4
[15] = 4.0 mg/kg gastric gavage, 150 min post dosing, n = 4
[16] = 4.0 mg/kg gastric gavage, 180 min post dosing, n = 4
[17] = 4.0 mg/kg gastric gavage, 210 min post dosing, n = 4
[18] = 1.5 mg/kg gastric gavage, 0 min post dosing, n = 5
[19] = 1.5 mg/kg gastric gavage, 15 min post dosing, n = 5
[20] = 1.5 mg/kg gastric gavage, 30 min post dosing, n = 5
[21] = 1.5 mg/kg gastric gavage, 60 min post dosing, n = 5
[22] = 1.5 mg/kg gastric gavage, 90 min post dosing, n = 5
[23] = 1.5 mg/kg gastric gavage, 120 min post dosing, n = 5
[24] = 1.5 mg/kg gastric gavage, 150 min post dosing, n = 5
[25] = 1.5 mg/kg gastric gavage, 180 min post dosing, n = 5
[26] = 1.5 mg/kg gastric gavage, 210 min post dosing, n = 5
[27] = 1.5 mg/kg gastric gavage, 240 min post dosing, n = 5

Sequence of 5-HT2A receptor (G1SYA7 1-469): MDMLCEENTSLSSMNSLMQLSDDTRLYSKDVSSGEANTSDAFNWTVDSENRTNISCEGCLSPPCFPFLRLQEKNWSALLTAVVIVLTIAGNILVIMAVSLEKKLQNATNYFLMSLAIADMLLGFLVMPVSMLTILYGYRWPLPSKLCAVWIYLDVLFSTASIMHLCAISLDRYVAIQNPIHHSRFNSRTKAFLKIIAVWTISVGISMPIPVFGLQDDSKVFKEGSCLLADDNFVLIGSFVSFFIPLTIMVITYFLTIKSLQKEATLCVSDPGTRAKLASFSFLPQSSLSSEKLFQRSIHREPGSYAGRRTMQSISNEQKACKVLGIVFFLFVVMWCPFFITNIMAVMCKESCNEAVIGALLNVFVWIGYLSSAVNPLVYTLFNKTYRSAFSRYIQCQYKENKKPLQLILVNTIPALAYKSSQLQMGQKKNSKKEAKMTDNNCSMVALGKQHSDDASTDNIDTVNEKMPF

FC(F)(F)c1cccc(N2CCN(CCCCn3cnc4ccccc43)CC2)c1 [II-2, 1-(4-(4-(3-trifluoromethylphenyl)piperazine-1-yl)butyl)-1H-benzimidazole]
EC50 [1]: 4.57 µM
marrow micronucleus test result (Kunming mice [2]): negative
micronuclei cells in 1000 polychromatic erythrocytes (Kunming mice [2]): 2.0±0.333%
diastolic blood pressure (DBP) (SD rats; [9]): 75.92 mmHg
mean artery pressure (MAP) (SD rats; [9]): 91.50 mmHg
systolic blood pressure (SBP) (SD rats; [9]): 122.66 mmHg
diastolic blood pressure (DBP) (SD rats; [10]): 62.21 mmHg
mean artery pressure (MAP) (SD rats; [10]): 73.40 mmHg
systolic blood pressure (SBP) (SD rats; [10]): 95.77 mmHg
diastolic blood pressure (DBP) (SD rats; [11]): 61.84 mmHg
mean artery pressure (MAP) (SD rats; [11]): 74.52 mmHg
systolic blood pressure (SBP) (SD rats; [11]): 99.88 mmHg
diastolic blood pressure (DBP) (SD rats; [12]): 58.04 mmHg
mean artery pressure (MAP) (SD rats; [12]): 72.77 mmHg
systolic blood pressure (SBP) (SD rats; [12]): 102.22 mmHg
diastolic blood pressure (DBP) (SD rats; [13]): 53.86 mmHg
mean artery pressure (MAP) (SD rats; [13]): 68.81 mmHg
systolic blood pressure (SBP) (SD rats; [13]): 98.71 mmHg
diastolic blood pressure (DBP) (SD rats; [14]): 69.10 mmHg
mean artery pressure (MAP) (SD rats; [14]): 83.12 mmHg
systolic blood pressure (SBP) (SD rats; [14]): 111.16 mmHg
diastolic blood pressure (DBP) (SD rats; [15]): 70.79 mmHg
mean artery pressure (MAP) (SD rats; [15]): 84.47 mmHg
systolic blood pressure (SBP) (SD rats; [15]): 111.82 mmHg
diastolic blood pressure (DBP) (SD rats; [16]): 71.08 mmHg
mean artery pressure (MAP) (SD rats; [16]): 84.83 mmHg
systolic blood pressure (SBP) (SD rats; [16]): 112.34 mmHg
diastolic blood pressure (DBP) (SD rats; [17]): 75.26 mmHg
mean artery pressure (MAP) (SD rats; [17]): 88.54 mmHg
systolic blood pressure (SBP) (SD rats; [17]): 115.12 mmHg
time until blood pressures recovered to those before drug dosing (SD rats): 3.5 h
oral absorption (SD rats): good oral absorption
hypotensive effects (SD rats): good hypotensive effects; also recorded: obvious hypotensive effects
EC50 [3]: 1860 nM
Kb (5-HT2A receptor): 1950 nM
therapeutic index (Kunming mice [4]): great therapeutic index
toxicity (Kunming mice [4]): mild toxicity
LD50 ([5]; po, gastric gavage): 362 mg/kg
PA2 value to resist constriction of rabbit aorta by CaCl2 (Calcium Channel (Ca^2+)): 5.61±0.04
PA2 value to resist constriction of rabbit aorta by NA (α1 receptor [6]): 7.37±0.08

Fc1ccc2c(C3CCN(CCCn4nnc5ccccc54)CC3)noc2c1 [II-85, N-(3-(1H-benzotriazole-1-yl)propyl)4-(3-(6-fluorobenzisoxazolyl))piperidine]
EC50 [7]: 30.9 nM
marrow micronucleus test result (Kunming mice [2]): negative
micronuclei cells in 1000 polychromatic erythrocytes (Kunming mice [2]): 2.5±0.373%
PA2 value to resist constriction of rabbit aorta by PE (α1 receptor [8]): 8.62±0.11
diastolic blood pressure (DBP) (SD rats; [18]): 103.06 mmHg
mean artery pressure (MAP) (SD rats; [18]): 116.63 mmHg
systolic blood pressure (SBP) (SD rats; [18]): 143.77 mmHg
diastolic blood pressure (DBP) (SD rats; [19]): 75.36 mmHg
mean artery pressure (MAP) (SD rats; [19]): 91.98 mmHg
systolic blood pressure (SBP) (SD rats; [19]): 125.22 mmHg
diastolic blood pressure (DBP) (SD rats; [20]): 68.68 mmHg
mean artery pressure (MAP) (SD rats; [20]): 84.42 mmHg
systolic blood pressure (SBP) (SD rats; [20]): 115.90 mmHg
diastolic blood pressure (DBP) (SD rats; [21]): 75.49 mmHg
mean artery pressure (MAP) (SD rats; [21]): 91.24 mmHg
systolic blood pressure (SBP) (SD rats; [21]): 122.75 mmHg
diastolic blood pressure (DBP) (SD rats; [22]): 83.32 mmHg
mean artery pressure (MAP) (SD rats; [22]): 97.37 mmHg
systolic blood pressure (SBP) (SD rats; [22]): 125.48 mmHg
diastolic blood pressure (DBP) (SD rats; [23]): 83.71 mmHg
mean artery pressure (MAP) (SD rats; [23]): 96.77 mmHg
systolic blood pressure (SBP) (SD rats; [23]): 122.89 mmHg
diastolic blood pressure (DBP) (SD rats; [24]): 95.06 mmHg
mean artery pressure (MAP) (SD rats; [24]): 108.73 mmHg
systolic blood pressure (SBP) (SD rats; [24]): 136.08 mmHg
diastolic blood pressure (DBP) (SD rats; [25]): 86.22 mmHg
mean artery pressure (MAP) (SD rats; [25]): 100.11 mmHg
systolic blood pressure (SBP) (SD rats; [25]): 127.90 mmHg
diastolic blood pressure (DBP) (SD rats; [26]): 97.96 mmHg
mean artery pressure (MAP) (SD rats; [26]): 111.02 mmHg
systolic blood pressure (SBP) (SD rats; [26]): 137.13 mmHg
diastolic blood pressure (DBP) (SD rats; [27]): 102.84 mmHg
mean artery pressure (MAP) (SD rats; [27]): 115.95 mmHg
systolic blood pressure (SBP) (SD rats; [27]): 142.19 mmHg
time until blood pressures recovered to those before drug dosing (SD rats): 6 h
oral absorption (SD rats): good oral absorption
hypotensive effects (SD rats): obvious hypotensive effects; also recorded: good hypotensive effects
EC50 [3]: 50.1 nM
Kb (5-HT2A receptor): 0.871 nM
LD50 ([5]; intraperitoneal, intraabdominal injection): 108 mg/kg
LD50 ([5]; po, gastric gavage): 222 mg/kg
PA2 value to resist constriction of rabbit aorta by CaCl2 (Calcium Channel (Ca^2+)): 6.10±0.13

COc1cc2nc(N3CCN(C(=O)C4COc5ccccc5O4)CC3)nc(N)c2cc1OC (stereo not drawn) [doxazosin, reference compound]
PA2 value to resist constriction of rabbit aorta by PE (α1 receptor [8]): 7.43±0.12
PA2 value to resist constriction of rabbit aorta by NA (α1 receptor [6]): 7.52±0.04 and 7.76±0.24
